Test results taken from US20110039762A1, “TARGETED ANTIMICROBIAL MOIETIES” (C3 JIAN, INC., priority 2009, published 2011).
“Also recorded” adds a separate entry of the source.

Legend:
S. epidermidis = test: Kill or inhibit growth/proliferation; morphology, biofilm and growth disruption (Tables 5, 6); format: cell-based, Staphylococcus epidermidis; parameters: key: A: Peptide aggregates; B: Less hyphal formation; Clumps; Diffuse clumps and small polyps; F: Diffuse growth; H: Thin; I: Growth inhibition; Microcolony formation; Rippled; Small polyps; Thick; W: Halo formation on top, microlonies on bottom; also: test concentration or dose not given here
M. luteus = test: as above; format: cell-based, Micrococcus luteus; parameters: key: A: Peptide aggregates; B: Less hyphal formation; Clumps; Diffuse clumps and small polyps; F: Diffuse growth; H: Thin; I: Growth inhibition; Microcolony formation; Rippled; Small polyps; Thick; W: Halo formation on top, microlonies on bottom
S. pneumoniae = test: as above; format: cell-based, Streptococcus pneumoniae; parameters: key: A: Peptide aggregates; B: Less hyphal formation; Clumps; Diffuse clumps and small polyps; F: Diffuse growth; H: Thin; I: Growth inhibition; Microcolony formation; Rippled; Small polyps; Thick; W: Halo formation on top, microlonies on bottom
MRSA = test: as above; format: cell-based, Methicillin-resistant Staphylococcus aureus; parameters: key: A: Peptide aggregates; B: Less hyphal formation; Clumps; Diffuse clumps and small polyps; F: Diffuse growth; H: Thin; I: Growth inhibition; Microcolony formation; Rippled; Small polyps; Thick; W: Halo formation on top, microlonies on bottom; also: test concentration or dose not given here
microorganisms = test: Peptides having multiple activities (targeting/binding, antimicrobial, growth or phenotype altering)
Excerpt: In certain embodiments, peptides described herein can have multiple activities. Thus for example, a peptide can have both binding/targeting activity and antimicrobial activity. Such peptides can be used, e.g., in a chimeric construct, for any or all of these properties. Thus, for example, a peptide designated “B” in Table 8 can be used as a targeting peptide. If it is also designated G or M it can also be used for antimicrobial activity.

[1] = system: microorganisms (e.g., bacteria, yeasts, fungi); test: Targeting peptide binding to target microorganisms (Table 3); conditions: microorganism(s) the targeting peptide binds, preferably 1x PBS
E. coli = test: Kill or inhibit growth/proliferation; morphology, biofilm and growth disruption (Tables 5, 6); format: cell-based, Escherichia coli; parameters: key: A: Peptide aggregates; B: Less hyphal formation; Clumps; Diffuse clumps and small polyps; F: Diffuse growth; H: Thin; I: Growth inhibition; Microcolony formation; Rippled; Small polyps; Thick; W: Halo formation on top, microlonies on bottom; also: test concentration or dose not given here
E. faecalis = test: as above; format: cell-based, Enterococcus faecalis; parameters: key: A: Peptide aggregates; B: Less hyphal formation; Clumps; Diffuse clumps and small polyps; F: Diffuse growth; H: Thin; I: Growth inhibition; Microcolony formation; Rippled; Small polyps; Thick; W: Halo formation on top, microlonies on bottom
C. jejuni = test: as above; format: cell-based, Campylobacter jejuni; parameters: key: A: Peptide aggregates; B: Less hyphal formation; Clumps; Diffuse clumps and small polyps; F: Diffuse growth; H: Thin; I: Growth inhibition; Microcolony formation; Rippled; Small polyps; Thick; W: Halo formation on top, microlonies on bottom
[2] = binding in aqueous buffers depending on peptide solubility
[3] = peptide binding conducted in aqueous buffers varied by peptide solubility
For Organism, effect in this document: test concentration or dose not given here.

Substance | Organism, effect (S. epidermidis) | Organism, effect (M. luteus) | Organism, effect (S. pneumoniae) | Organism, effect (MRSA) | Activities (microorganisms) | Target(s) [1, 2] | Organism, effect (E. coli) | Organism, effect (E. faecalis) | Organism, effect (C. jejuni) | Target(s) [1, 3]
EILNNNQVIKELTMKYKTQFESNLGGWTARARR [PF-580] | S. epidermidis (M) | M. luteus (C) | S. pneumoniae (C) | MRSA (M) | G B |  |  |  |  | 
LMFFSENMDKRDTLSGKFRYFAGSKVIKLMNWLSENGK [PF-226] | S. epidermidis (C) | M. luteus (T) |  |  | G B | A. baumannii |  |  |  | 
MGIIAGIIKVIKSLIEQFTGK [PF-007] | S. epidermidis (A) | M. luteus (A) |  | MRSA (R) | G B |  | E. coli (A) | E. faecalis (A) |  | 
PF-059 (TITLKAGIERALHEEVPGVIEVEQVF; Peptide with targeting and/or antimicrobial activity) |  |  |  |  |  |  |  |  | C. jejuni (C) | 
PF-125: peptide having multiple activities (YVVGALVILAVAGLIYSMLRKA; Peptide with targeting and/or antimicrobial activity) | S. epidermidis (D) | M. luteus (C) |  |  | G B |  |  |  |  | 
PF-212: peptide having multiple activities (NDSKASN; Peptide with targeting and/or antimicrobial activity) |  | M. luteus (M) |  |  | G B | M. luteus; also recorded: P. aeruginosa |  |  |  | 
PF-215: peptide having multiple activities (ELKITNYNVNTVLYRYYKWGNDLCE; Peptide with targeting and/or antimicrobial activity) |  | M. luteus (T) |  |  | G B | S. epidermidis; also recorded: M. luteus; also recorded: P. aeruginosa; also recorded: A. baumannii |  |  |  | 
PF-224: peptide having multiple activities (DYFYITLSQKNTF; Peptide with targeting and/or antimicrobial activity) |  | M. luteus (T) |  |  | G B | S. epidermidis; also recorded: P. aeruginosa; also recorded: A. baumannii |  |  |  | 
PF-234: peptide having multiple activities (RTPYILRS; Peptide with targeting and/or antimicrobial activity) |  | M. luteus (T) |  |  | G B | S. epidermidis; also recorded: M. luteus |  |  |  | 
PF-235: peptide having multiple activities (GIPFSKPHKRQVNYMKSDVLAYIEQNKMAHTA; Peptide with targeting and/or antimicrobial activity) |  | M. luteus (T) |  |  | G B | S. epidermidis; also recorded: M. luteus |  |  |  | 
PF-249: peptide having multiple activities (INSRYKISF; Peptide with targeting and/or antimicrobial activity) |  | M. luteus (R) |  |  | G B | S. epidermidis; also recorded: M. luteus |  |  |  | 
PF-250 (SEDIFGRLANEKANGLEELRKIRLKQ; Peptide with targeting and/or antimicrobial activity) |  | M. luteus (T) |  |  |  |  |  |  |  | 
PF-255: peptide having multiple activities (DHKINESQHNPFRSDSNKQNVDFF; Peptide with targeting and/or antimicrobial activity) |  | M. luteus (M) |  |  | G B | P. aeruginosa |  |  |  | 
PF-264 (MQSLSNRQSLIASYILMGIFLSFGYPPASLSKFFCRLSHL; Peptide with targeting and/or antimicrobial activity) |  | M. luteus (H) |  |  |  |  |  |  |  | 
PF-270: peptide having multiple activities (MYLTPYAWIAVGSIFAFSVTTIKIGDQNDEKQKSHKNDVHKR; Peptide with targeting and/or antimicrobial activity) |  | M. luteus (H) |  |  | G B | S. epidermidis; also recorded: M. luteus; also recorded: P. aeruginosa |  |  |  | 
PF-271: peptide having multiple activities (AAQPQTTSP; Peptide with targeting and/or antimicrobial activity) |  | M. luteus (T) |  |  | G B | S. epidermidis; also recorded: M. luteus; also recorded: P. aeruginosa; also recorded: A. baumannii |  |  |  | 
PF-274 (SIQEAEKIIKNDPFYIHDVADYDFMWFEPSKSLEEIKEFV; Peptide with targeting and/or antimicrobial activity) |  | M. luteus (M) |  |  |  |  |  |  |  | 
PF-276: peptide having multiple activities (LDLALSTNSLNLEGFSF; Peptide with targeting and/or antimicrobial activity) |  | M. luteus (M) |  |  | G B | S. epidermidis |  |  |  | 
PF-357: peptide having multiple activities (chain 1 MLTIIIGFIFWTMTLMLGYLIGEREGRKHE; chain 2 MLTIIIGFIFWTMTLMLGYLIGEREGRKHE; Peptide with targeting and/or antimicrobial activity) | S. epidermidis (M) | M. luteus (C) | S. pneumoniae (M) | MRSA (M) | G B |  |  |  |  | 
PF-444: peptide having multiple activities (chain 1 MAAKLWEEGKMVYASSASMTKRLKLAMSKV; chain 2 MAAKLWEEGKMVYASSASMTKRLKLAMSKV; Peptide with targeting and/or antimicrobial activity) | S. epidermidis (C) |  | S. pneumoniae (R) | MRSA (C) | G B |  | E. coli (R) | E. faecalis (C) |  | M. luteus; also recorded: C. albicans; also recorded: S. pneumoniae; also recorded: C. jeikeium
PF-452: peptide having multiple activities (chain 1 MNNWIKVAQISVTVINEVIDIMKEKQNGGK; chain 2 MNNWIKVAQISVTVINEVIDIMKEKQNGGK; Peptide with targeting and/or antimicrobial activity) | S. epidermidis (C) |  | S. pneumoniae (R) | MRSA (C) | G B |  | E. coli (C) | E. faecalis (C) |  | M. luteus; also recorded: P. aeruginosa; also recorded: C. albicans; also recorded: S. pneumoniae; also recorded: E. faecalis; also recorded: C. jeikeium; also recorded: M. smegmatis
PF-460: peptide having multiple activities (chain 1 MEHVLPFQNTPPNIVIIYKDFTHLKSITFS; chain 2 MEHVLPFQNTPPNIVIIYKDFTHLKSITFS; Peptide with targeting and/or antimicrobial activity) | S. epidermidis (C) |  | S. pneumoniae (R) | MRSA (C) | G B |  | E. coli (H) | E. faecalis (C) |  | 
PF-518: peptide having multiple activities (chain 1 SFYSKYSRYIDNLAGAIFLFF; chain 2 SFYSKYSRYIDNLAGAIFLFF; Peptide with targeting and/or antimicrobial activity) | S. epidermidis (C) |  | S. pneumoniae (M) | MRSA (C) | G B |  | E. coli (R) | E. faecalis (C) |  | S. epidermidis and E. coli and P. aeruginosa and C. albicans and MRSA and S. pneumoniae and E. faecalis
VWENRKKYLENEIERHNVFLKLGQEVIKGLNALASRGR [PF-257] |  | M. luteus (R) |  |  | G B | S. epidermidis |  |  |  | 
